Measurements from US8039430B2 (University of Wollongong, priority 2005, dated 2011).
In brackets after ≈: the same amount, converted by molar mass. Like-named read-outs stand apart in the source and are kept apart here.

Key:
[1] = tested on: Staphylococcus aureus (ATCC 6538P); test: Antibacterial assay (MIC), Staphylococcus aureus ATCC 6538P, Luria Broth, Example 1; format: cell-based; conditions: for MIC: Staphylococcus aureus, ATCC6538P, read-out: Sa (minimum inhibitory concentration)
Procedure: (§1) Antibacterial Assay Method for Staphylococcus aureus (ATCC 6538P) and Enterococcus faecium
Staphylococcus aureus (ATCC 6538P)
(§2) Compounds are accurately weighed out (between approx. 1-2 mg) and dissolved in either 10% methanol/water (v/v) or 100% DMSO to a final stock concentration of 5 mg/ml.
(§3) Compounds are then diluted 1/10 in H2O to a test conc of 500 ug/ml ready for immediate use, or storage at −20° C.
(§4) Grow up an o/n starter culture of Staphylococcus aureus and each VRE strain by diluting previous culture (stored at 4° C.) 1/1000 into −50 mls Luria Broth (LB) for S. aureus or Enterococossel Broth (EB) for the VRE strains.
(§5) Incubate o/n at 37° C.+shaking. • A glycerol stock (0.6 mls bacterial culture, 0.3 mls glycerol) of each strain is kept at −80° C. if needed. Assay Set Up:
(§6) In a 96well round bottom plate add 50 ul LB/well for the S. aureus plate and add 50 ul EB/well for the VRE plates.
(§7) Add 50 ul of compound dilution (500 ug/ml test conc) to each of three top row wells (ie: tested in triplicate) and dilute 1 in 2 from the top row to the bottom row.
(§8) After the compound dilution, add to each well 50 ul of a 1/1000 dilution of the appropriate overnight bacterial culture, either S. aureus or the different VRE strains.
(§9) Plates are incubated at 37° C. on a slowly rotating plate incubator. • test concentrations are (in ug/ml) 125, 62.5, 31.25, 15.6, 7.8, 3.9, 1.9, 0.98 • final DMSO concentration in the first row of wells of the assay is 2.5% • Vancomycin is included in the assay (in triplicate) at a starting test concentration of 5 ug/ml for S. aureus and 125 ug/ml for the VRE strains Reading Results of Assay:
(§10) After incubation for 24 hrs the plates are removed and read. Inhibition of bacterial growth is indicated by lack of bacterial pellet or a clear well. In the VRE plates bacterial growth is indicated by black coloured media (EB) as well as a bacterial pellet.
(§11) Untreated control wells are included in the assay to check they all contain bacterial pellets. Uninoculated untreated control wells are included to check they all contain clear medium.
(§12) The plates are analysed for MIC and the results tabulated.

[2] = tested on: #243 E. faecium van B ST17; test: Antibacterial assay (MIC), VRE strain #243, Enterococossel Broth, Example 1; format: cell-based, Enterococcus faecium; conditions: for MIC: Enterococcus faecium, read-out: 243 (minimum inhibitory concentration)
Procedure: as §1
(§13) VRE strains: #243 E. faecium van B ST17 #449 E. faecium van B ST17
as §2, §3, §4, §5, §6, §7, §8, §9, §10, §11, §12

[3] = tested on: #820 E. faecium van A ST17; test: Antibacterial assay (MIC), VRE strain #820, Enterococossel Broth, Example 1; format: cell-based, Enterococcus faecium; conditions: for MIC: Enterococcus faecium, read-out: 820 (minimum inhibitory concentration)
Procedure: as §1
(§14) #820 E. faecium van A ST17 #987 E. faecium van B ST39
as §2, §3, §4, §5, §6, §7, §8, §9, §10, §11, §12

[4] = tested on: #449 E. faecium van B ST17; test: Antibacterial assay (MIC), VRE strain #449, Enterococossel Broth, Example 1; format: cell-based, Enterococcus faecium; conditions: for MIC: Enterococcus faecium, read-out: 449 (minimum inhibitory concentration)
Procedure: as §1, §13, §2, §3, §4, §5, §6, §7, §8, §9, §10, §11, §12

[5] = tested on: #987 E. faecium van B ST39; test: Antibacterial assay (MIC), VRE strain #987, Enterococossel Broth, Example 1; format: cell-based, Enterococcus faecium; conditions: for MIC: Enterococcus faecium, read-out: 987 (minimum inhibitory concentration)
Procedure: as §1, §14, §2, §3, §4, §5, §6, §7, §8, §9, §10, §11, §12

[6] = Example 1 compounds, S. aureus ATCC 6538P, 24 hrs, 37° C., range if at least two of three values fell within it
[7] = Example 1 compounds, VRE #243 E. faecium van B, 24 hrs, 37° C.
[8] = Example 1 compounds, VRE #820 E. faecium van A, 24 hrs, 37° C.
[9] = Example 1 compounds, VRE #449 E. faecium van B, 24 hrs, 37° C.
[10] = Example 1 compounds, VRE #987 E. faecium van B, 24 hrs, 37° C.

| MIC [1, 6] [µg/mL] | MIC [2, 7] [µg/mL] | MIC [3, 8] [µg/mL] | MIC [4, 9] [µg/mL] | MIC [5, 10] [µg/mL] | SMILES | other results |
| --- | --- | --- | --- | --- | --- | --- |
| 0.99 to 15.6 | 15.7 to 62.5 | 0.99 to 15.6 | 0.99 to 15.6 | 15.7 to 62.5 | C=CC[C@H](NC(=O)[C@@H](CCCNC(=N)N)NC(=O)[C@@H](CCCCN)NC(=O)COc1ccc2ccccc2c1-c1c(OCCC(C)C)ccc2ccccc12)C(=O)OCc1ccccc1.Cl.Cl (atropisomer, axis not shown) [Compound 29] |  |
| 0.99 to 15.6 | > 62.6 | 15.7 to 62.5 | 15.7 to 62.5 | > 62.6 | Cl.Cl.NCCCC[C@@H](NC(=O)CCCOc1ccc2ccccc2c1-c1c(OCCCC(=O)N[C@H](CCCCN)C(=O)OCc2ccccc2)ccc2ccccc12)C(=O)OCc1ccccc1 (atropisomer, axis not shown) [Compound 34] |  |
| 0.99 to 15.6 | > 62.6 | 15.7 to 62.5 | > 62.6 | > 62.6 | Cl.Cl.NCCCC[C@@H](NC(=O)CCCOc1ccc2ccccc2c1-c1c(OCCCC(=O)N[C@H](CCCCN)C(=O)OCc2cccc3ccccc23)ccc2ccccc12)C(=O)OCc1cccc2ccccc12 (atropisomer, axis not shown) [Compound 35] |  |
| 0.99 to 15.6 | > 62.6 | 15.7 to 62.5 | 15.7 to 62.5 | > 62.6 | Cl.Cl.N=C(N)NCCCC[C@@H](NC(=O)CCCOc1ccc2ccccc2c1-c1c(OCCCC(=O)N[C@H](CCCCNC(=N)N)C(=O)OCc2ccccc2)ccc2ccccc12)C(=O)OCc1ccccc1 (atropisomer, axis not shown) [Compound 39] |  |
| 0.99 to 15.6 | > 62.6 | 15.7 to 62.5 | > 62.6 | > 62.6 | Cl.Cl.N=C(N)NCCCC[C@@H](NC(=O)CCCOc1ccc2ccccc2c1-c1c(OCCCC(=O)N[C@H](CCCCNC(=N)N)C(=O)Oc2cccc3ccccc23)ccc2ccccc12)C(=O)Oc1cccc2ccccc12 (atropisomer, axis not shown) [Compound 40] |  |
| 0.99 to 15.6 | > 62.6 | 15.7 to 62.5 | > 62.6 | > 62.6 | C=CCOc1ccc2ccccc2c1-c1c(OCC(=O)N[C@H](CCCNC(=N)N)C(=O)Nc2cccc(C(=O)OC)c2)ccc2ccccc12.Cl (atropisomer, axis not shown) [Compound 44] |  |
| 0.99 to 15.6 | 15.7 to 62.5 | 15.7 to 62.5 | 15.7 to 62.5 | 15.7 to 62.5 | C=CCOc1ccc2ccccc2c1-c1c(OCC(=O)N[C@H](CCCNC(=N)N)C(=O)Nc2cccc(C(=O)OCc3ccccc3)c2)ccc2ccccc12.Cl (atropisomer, axis not shown) [Compound 45] |  |
| 0.99 to 15.6 | > 62.6 | > 62.6 | > 62.6 | > 62.6 | C=CCOc1ccc2ccccc2c1-c1c(OCC(=O)N[C@H](CCCNC(=N)N)C(=O)Nc2cccc(C(=O)NOCc3ccccc3)c2)ccc2ccccc12.Cl (atropisomer, axis not shown) [Compound 46] |  |
| 0.99 to 15.6 | 15.7 to 62.5 | 15.7 to 62.5 | 15.7 to 62.5 | 15.7 to 62.5 | CCC(C)[C@H](NC(=O)[C@@H](CCCNC(=N)N)NC(=O)[C@@H](CCCCN)NC(=O)COc1ccc2ccccc2c1-c1c(OCCC(C)C)ccc2ccccc12)C(=O)OCc1ccccc1.Cl.Cl (stereo partly shown) [Compound 3] |  |
| 0.99 to 15.6 | 15.7 to 62.5 | 15.7 to 62.5 | 15.7 to 62.5 | 15.7 to 62.5 | CC(C)CCOc1ccccc1-c1ccccc1OCC(=O)N[C@H](CCCCN)C(=O)N[C@H](CCCNC(=N)N)C(=O)N[C@@H](CC(C)C)C(=O)OCc1ccccc1.Cl.Cl [Compound 11] |  |
| 0.99 to 15.6 (≈ 1.12 to 17.6 µM) | 15.7 to 62.5 (≈ 17.7 to 70.5 µM) | 15.7 to 62.5 (≈ 17.7 to 70.5 µM) | 15.7 to 62.5 (≈ 17.7 to 70.5 µM) | > 62.6 | C=CC[C@H](NC(=O)[C@@H](CCCNC(=N)N)NC(=O)[C@@H](CCCCN)NC(=O)COc1ccc2ccccc2c1-c1c(OCC(C)(C)C)ccc2ccccc12)C(=O)OCc1ccccc1 [Compound 27] |  |
|  |  |  |  |  | NCCCC[C@@H](NC(=O)CCCOc1ccc2ccccc2c1-c1c(OCCCC(=O)N[C@H](CCCCN)C(=O)OCc2ccccn2)ccc2ccccc12)C(=O)OCc1ccccn1 [Compound 36] | MIC ([1]; 24 h): > 62.6 µg/mL; MIC ([2]; VRE, 24 h): > 62.6 µg/mL; MIC ([3]; VRE, 24 h): > 62.6 µg/mL; MIC ([4]; VRE, 24 h): > 62.6 µg/mL; MIC ([5]; VRE, 24 h): > 62.6 µg/mL |
| 0.99 to 15.6 (≈ 1.04 to 16.4 µM) | > 62.6 | > 62.6 | > 62.6 | > 62.6 | N=C(N)NCCC[C@@H](NC(=O)CCCOc1ccc2ccccc2c1-c1c(OCCCC(=O)N[C@H](CCCNC(=N)N)C(=O)OCc2ccccn2)ccc2ccccc12)C(=O)OCc1ccccn1 [Compound 37] |  |
|  |  |  |  |  | COC(=O)[C@H]1CC=CCOc2ccc(cc2)C[C@H](NC(C)=O)C(=O)N[C@@H](CCCN=C(N)NS(=O)(=O)c2c(C)c(C)c3c(c2C)CCC(C)(C)O3)C(=O)N1 [Compound 47] | Sa (minimum inhibitory concentration) [1, 6]: +++ (MIC of the compound in the range of greater than or equal to 0.99 (μg/ml) and less than or equal to 15.6 (μg/ml)); 243 (minimum inhibitory concentration) [2, 7]: + (MIC of the compound in the range of greater than or equal to 62.6 (μg/ml)); 820 (minimum inhibitory concentration) [3, 8]: + (MIC of the compound in the range of greater than or equal to 62.6 (μg/ml)); 449 (minimum inhibitory concentration) [4, 9]: + (MIC of the compound in the range of greater than or equal to 62.6 (μg/ml)); 987 (minimum inhibitory concentration) [5, 10]: + (MIC of the compound in the range of greater than or equal to 62.6 (μg/ml)) |

| SMILES | MIC [1, 6] [µg/mL] | MIC [2, 7] [µg/mL] | MIC [3, 8] [µg/mL] | MIC [4, 9] [µg/mL] | MIC [5, 10] [µg/mL] | other results |
| --- | --- | --- | --- | --- | --- | --- |
| C=CCOc1ccc2ccccc2c1-c1c(OCC(=O)N[C@H](CCCN)C(=O)Nc2cccc(C(=O)OC)c2)ccc2ccccc12.Cl (atropisomer, axis not shown) [Compound 41] | 0.99 to 15.6 | > 62.6 | > 62.6 | > 62.6 | > 62.6 |  |
| C=CCOc1ccc2ccccc2c1-c1c(OCC(=O)N[C@H](CCCN)C(=O)Nc2cccc(C(=O)OCc3ccccc3)c2)ccc2ccccc12.Cl (atropisomer, axis not shown) [Compound 42] | 15.7 to 62.5 | > 62.6 | > 62.6 | > 62.6 | > 62.6 |  |
| C=CCOc1ccc2ccccc2c1-c1c(OCC(=O)N[C@H](CCCN)C(=O)Nc2cccc(C(=O)NOCc3ccccc3)c2)ccc2ccccc12 [Compound 43] | 0.99 to 15.6 (≈ 1.37 to 21.6 µM) | > 62.6 | 15.7 to 62.5 (≈ 21.7 to 86.5 µM) | > 62.6 | > 62.6 |  |
